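A five-concentration, 48-hour dose response in 96-well plates underlies each endpoint, interpolated linearly between surrounding concentrations. GI50 is the concentration that inhibits growth by half. TGI is the concentration that stops growth completely.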
How the values were obtained:
Test in all cases: DTP human tumour cell line panel, 48 h
SK-MEL-28 melanoma = system: SK-MEL-28 melanoma
U251 CNS = system: U251 CNS
RXF 393 renal = system: RXF 393 renal
OVCAR-3 ovarian = system: OVCAR-3 ovarian
LOX IMVI melanoma = system: LOX IMVI melanoma
HL-60(TB) leukemia = system: HL-60(TB) leukemia
SF-268 CNS = system: SF-268 CNS
NCI-H460 lung = system: NCI-H460 lung
COLO 205 colon = system: COLO 205 colon
HS 578T breast = system: HS 578T breast
MDA-MB-231 breast = system: MDA-MB-231 breast
HCT-116 colon = system: HCT-116 colon
MDA-MB-468 breast = system: MDA-MB-468 breast
SNB-19 CNS = system: SNB-19 CNS
SK-MEL-5 melanoma = system: SK-MEL-5 melanoma
HOP-62 NSCLC = system: HOP-62 NSCLC
SK-MEL-2 melanoma = system: SK-MEL-2 melanoma
UO-31 renal = system: UO-31 renal
KM12 colon = system: KM12 colon
DU-145 prostate = system: DU-145 prostate
UACC-257 melanoma = system: UACC-257 melanoma
SN12C renal = system: SN12C renal
HCT-15 colon = system: HCT-15 colon
HT29 colon = system: HT29 colon
BT-549 breast = system: BT-549 breast
EKVX NSCLC = system: EKVX NSCLC
OVCAR-5 ovarian = system: OVCAR-5 ovarian
NCI/ADR-RES ovarian = system: NCI/ADR-RES ovarian
NCI-H23 lung = system: NCI-H23 lung
SW-620 colon = system: SW-620 colon
OVCAR-8 ovarian = system: OVCAR-8 ovarian
CAKI-1 renal = system: CAKI-1 renal
SK-OV-3 ovarian = system: SK-OV-3 ovarian
TK-10 renal = system: TK-10 renal
MALME-3M melanoma = system: MALME-3M melanoma
HOP-92 NSCLC = system: HOP-92 NSCLC
OVCAR-4 ovarian = system: OVCAR-4 ovarian
786-0 renal = system: 786-0 renal
NCI-H522 lung = system: NCI-H522 lung
HCC-2998 colon = system: HCC-2998 colon
ACHN renal = system: ACHN renal
T-47D breast = system: T-47D breast
PC-3 prostate = system: PC-3 prostate
IGROV1 ovarian = system: IGROV1 ovarian
M14 melanoma = system: M14 melanoma
RPMI-8226 leukemia = system: RPMI-8226 leukemia
A498 renal = system: A498 renal
UACC-62 melanoma = system: UACC-62 melanoma
SF-539 CNS = system: SF-539 CNS
NCI-H226 lung = system: NCI-H226 lung
K-562 leukemia = system: K-562 leukemia
MDA-MB-435 = system: MDA-MB-435
A549 NSCLC = system: A549 NSCLC
MCF7 breast = system: MCF7 breast
MOLT-4 leukemia = system: MOLT-4 leukemia
SF-295 CNS = system: SF-295 CNS
CCRF-CEM leukemia = system: CCRF-CEM leukemia

**Q.** What does the source list for `Clc1cccc(N/N=C/c2c[nH]c3ccc(Br)cc23)n1`?
**A.** GI50 (SK-MEL-28 melanoma): 14.2 µM; TGI (SK-MEL-28 melanoma): 27.3 µM; GI50 (U251 CNS): 8.5 µM; TGI (U251 CNS): 23.6 µM; GI50 (RXF 393 renal): 1.23 µM; TGI (RXF 393 renal): 8.11 µM; GI50 (OVCAR-3 ovarian): 2.11 µM; TGI (OVCAR-3 ovarian): 11.1 µM; GI50 (LOX IMVI melanoma): 1.22 µM; TGI (LOX IMVI melanoma): 11 µM; GI50 (HL-60(TB) leukemia): 2.7 µM; TGI (HL-60(TB) leukemia): 23.9 µM; GI50 (SF-268 CNS): 1.85 µM; TGI (SF-268 CNS): 15.3 µM; GI50 (NCI-H460 lung): 3.52 µM; TGI (NCI-H460 lung): 15.2 µM; GI50 (COLO 205 colon): 11.8 µM; TGI (COLO 205 colon): 24.2 µM; GI50 (HS 578T breast): 2.94 µM; TGI (HS 578T breast): 27.1 µM; GI50 (MDA-MB-231 breast): 1.47 µM; TGI (MDA-MB-231 breast): 8.95 µM; GI50 (HCT-116 colon): 4.36 µM; TGI (HCT-116 colon): 18 µM; GI50 (MDA-MB-468 breast): 4.42 µM; TGI (MDA-MB-468 breast): 16.6 µM; GI50 (SNB-19 CNS): 10.2 µM; TGI (SNB-19 CNS): 21.8 µM; GI50 (SK-MEL-5 melanoma): 10.3 µM; TGI (SK-MEL-5 melanoma): 22 µM; GI50 (HOP-62 NSCLC): 4.28 µM; TGI (HOP-62 NSCLC): 18.8 µM; GI50 (SK-MEL-2 melanoma): 4.85 µM; TGI (SK-MEL-2 melanoma): 19.5 µM; GI50 (UO-31 renal): 0.391 µM; TGI (UO-31 renal): 14.8 µM; GI50 (KM12 colon): 2.69 µM; TGI (KM12 colon): 9.62 µM; GI50 (DU-145 prostate): 8.12 µM; TGI (DU-145 prostate): 21 µM; GI50 (UACC-257 melanoma): 12 µM; TGI (UACC-257 melanoma): 25.2 µM; GI50 (SN12C renal): 0.695 µM; TGI (SN12C renal): 13 µM; GI50 (HCT-15 colon): 3.87 µM; TGI (HCT-15 colon): 15.3 µM; GI50 (HT29 colon): 10.8 µM; TGI (HT29 colon): 24 µM; GI50 (BT-549 breast): 0.296 µM; TGI (BT-549 breast): 12.3 µM; GI50 (EKVX NSCLC): 1.6 µM; TGI (EKVX NSCLC): 14.6 µM; GI50 (OVCAR-5 ovarian): 10.2 µM; TGI (OVCAR-5 ovarian): 22.1 µM; GI50 (NCI/ADR-RES ovarian): 3.08 µM; TGI (NCI/ADR-RES ovarian): 17.6 µM; GI50 (NCI-H23 lung): 10.2 µM; TGI (NCI-H23 lung): 23.4 µM; GI50 (SW-620 colon): 3.22 µM; TGI (SW-620 colon): 15.5 µM; GI50 (OVCAR-8 ovarian): 5.91 µM; TGI (OVCAR-8 ovarian): 26 µM; GI50 (CAKI-1 renal): 1.29 µM; TGI (CAKI-1 renal): 12.2 µM; GI50 (SK-OV-3 ovarian): 2.04 µM; TGI (SK-OV-3 ovarian): 16 µM; GI50 (TK-10 renal): 14 µM; TGI (TK-10 renal): 27.2 µM; GI50 (MALME-3M melanoma): 11.6 µM; TGI (MALME-3M melanoma): 24.5 µM; GI50 (HOP-92 NSCLC): 1.55 µM; TGI (HOP-92 NSCLC): 8.21 µM; GI50 (OVCAR-4 ovarian): 6.12 µM; TGI (OVCAR-4 ovarian): 23.9 µM; GI50 (786-0 renal): 6.61 µM; TGI (786-0 renal): 20.3 µM; GI50 (NCI-H522 lung): 1.01 µM; TGI (NCI-H522 lung): 11.9 µM; GI50 (HCC-2998 colon): 4.07 µM; TGI (HCC-2998 colon): 14.3 µM; GI50 (ACHN renal): 6.73 µM; TGI (ACHN renal): 20.1 µM; GI50 (T-47D breast): 3.38 µM; TGI (T-47D breast): 20.3 µM; GI50 (PC-3 prostate): 1.25 µM; TGI (PC-3 prostate): 14 µM; GI50 (IGROV1 ovarian): 0.349 µM; TGI (IGROV1 ovarian): 2.59 µM; GI50 (M14 melanoma): 4 µM; TGI (M14 melanoma): 17.9 µM; GI50 (RPMI-8226 leukemia): 2.2 µM; TGI (RPMI-8226 leukemia): 20.4 µM; GI50 (A498 renal): 17 µM; TGI (A498 renal): 32.2 µM; GI50 (UACC-62 melanoma): 0.718 µM; TGI (UACC-62 melanoma): 18.1 µM; GI50 (SF-539 CNS): 1.6 µM; TGI (SF-539 CNS): 15 µM; GI50 (NCI-H226 lung): 0.416 µM; TGI (NCI-H226 lung): 18 µM; GI50 (K-562 leukemia): 2 µM; TGI (K-562 leukemia): 29.6 µM; GI50 (MDA-MB-435): 2.6 µM; TGI (MDA-MB-435): 11.6 µM; GI50 (A549 NSCLC): 11.7 µM; TGI (A549 NSCLC): 26.3 µM; GI50 (MCF7 breast): 3.74 µM; TGI (MCF7 breast): 17 µM; GI50 (MOLT-4 leukemia): 0.416 µM; TGI (MOLT-4 leukemia): 11.5 µM; GI50 (SF-295 CNS): 7.12 µM; TGI (SF-295 CNS): 20.4 µM; GI50 (CCRF-CEM leukemia): 0.231 µM; TGI (CCRF-CEM leukemia): 16 µM

Reference: PubChem BioAssay (NCI)
